Results reported in US20150104868A1, “Methods of Maintaining and Improving Biological Cell Function and Activity” (GARGILL INCORPORATED, priority 2012, published 2015).
Entries after “also recorded” stand apart in the source; their conditions may differ. Read-outs that look alike come from different tables or passages of the source.

What was measured:
[1] = test system: Mouse intestine (entero-endocrine) STC-1 cells
Method: Appropriate blanks, positive controls, and standards were also included.
The lactate dehydrogenase (LDH) leakage from cells was analyzed in the supernatants as a marker for cytotoxic cell death.

HUVEC cells [2] = assay: Oxidative damage: protein carbonyls in HUVEC; format: cell-based, human; conditions: HG 30 mM glucose 24 h, with or without 5 mM ERT/MAN
Method: The prepared cells were seeded in 6 well plates and T75 flasks and grown until 80% confluence. The medium was removed, and the cells were washed with Hank's Balanced Salt Solution (HBSS). […] The vehicle solution is the solvent for the test compounds, in this case being the medium without supplements. […] The cells described above were also incubated for 24 hours with a 7 mM, normal glucose (NG) solution or in some instances, with a 15 mM, intermediary glucose (IG) solution. See, for example, FIG. 6. Subsequently, the cells were incubated for 24 hours. The same protocol was used for incubation with Nε-(carboxymethyl)lysine (CML, final concentration 1 micromolar) and 1,3-morpholino sidnonimine (SIN-1, final concentration 0.5 mM). […] Hyperglycemia is strongly associated with oxidative stress, an imbalance between the formation of reactive oxygen species and the present antioxidants. Excess reactive oxygen species react with critical cellular targets, viz. membrane lipids, proteins and (deoxy)ribonucleic acids. […] Accordingly, one of the targeted assays included studying a comparison of HG to HGERT conditions, where the oxidative damage was evaluated showing that the protein carbonyls decreased from 6.55 nM/mg protein with HG to 3.77 with […]=0.089). Protein carbonyls are end products of reactions between proteins and reactive oxygen species (ROS), formed during oxidative stress. […]

HUVEC cells [3] = assay: HUVEC cell viability assay (trypan blue, percentage of dead cells); format: cell-based, human; conditions: ERT/MAN 5 mM 1 h before, SIN-1 0.5 mM, CML 1 micromolar
Method: A HUVEC cell line (CRL-1730) was obtained from American Type Culture Collection (ATCC) of Manassas, Va. […] The prepared cells were maintained in collagen coated T75 flasks (Greiner Bio-one) at 37° C. in a 5% CO2 atmosphere. The prepared cells were subjected to various stressors. Stressors, for purposes of the examples, include conditions of stress caused by glucose directly or indirectly through the formation or elevation of other substances that cause stress. Diabetic stressors include high glucose (HG; 30 mM, 24 h), TNFα: pro-inflammatory agent, Nε carboxymethyllysine: advanced glycation end (AGE) product, and SIN-1: peroxynitrite generator. Prepared cells were also exposed to normal glucose (NG; 7 mM, 24 h) as a control. The prepared cells were seeded in 6 well plates and T75 flasks and grown until 80% confluence. The medium was removed, and the cells were washed with Hank's Balanced Salt Solution (HBSS). […] The vehicle solution is the solvent for the test compounds, in this case being the medium without supplements. […] The cells described above were also incubated for 24 hours with a 7 mM, normal glucose (NG) solution or in some instances, with a 15 mM, intermediary glucose (IG) solution. See, for example, FIG. 6. Subsequently, the cells were incubated for 24 hours. The same protocol was used for incubation with Nε-(carboxymethyl)lysine (CML, final concentration 1 micromolar) and 1,3-morpholino sidnonimine (SIN-1, final concentration 0.5 mM). […] In a cell viability assay, fresh, untreated HUVEC cells were grown in 6 well plates until 80% confluence. Subsequently, the incubation medium was removed and the cells were washed with HBSS and harvested with trypsin. All cell material, including the medium and the HBSS wash, was collected and centrifuged for 5 minutes at 500×g. […] The number of viable (white) and dead (blue) cells were counted in 25 squares, and the count was repeated an additional two times for each sample, for a total of three counts per sample. […] The percentage of dead cells was then calculated with the formula: (blue cells/(blue cells+white cells))*100.

SMILES: O=C(CO)[C@@H](O)[C@H](O)[C@H](O)CO[C@H]1O[C@H](CO)[C@@H](O)[C@H](O)[C@H]1O [6-O-α-D-glucopyranosyl-D-fructose]
- cell death (leakage of lactate dehydrogenase) [1]: cell death was higher

SMILES: OC[C@@H](O)[C@@H](O)[C@H](O)[C@H](O)CO [MAN, (2R,3R,4R,5R)-hexaan-1,2,3,4,5,6-hexol, reference compound]
- protein carbonyls (HUVEC cells [2]): did not reduce protein carbonyls

SMILES: [NH-]c1c[n+](N2CCOCC2)no1 [SIN-1, 3-morpholinosidnonimine]
- percentage of dead cells (Average) (HUVEC cells [3]; HG 30 mM glucose 24 h, listed as SIN): 12.59%
- percentage of dead cells (Average) (HUVEC cells [3]; NG 7 mM glucose 24 h): significant increase in the amount of dead cells; also recorded: increased the number of dead cells
- percentage of dead cells (Average) (HUVEC cells [3]; NG 7 mM glucose 24 h, listed as SIN): 12.29%

SMILES: O=C(CO)[C@@H](O)[C@H](O)[C@H](O)CO [fructose]
- cell death (leakage of lactate dehydrogenase) ([1]; STC-1 cells, 10% w/v, 2 hours at 37° C.): cell death was higher

SMILES: OC[C@H]1O[C@@](CO)(O[C@H]2O[C@H](CO)[C@@H](O)[C@H](O)[C@H]2O)[C@@H](O)[C@@H]1O [sucrose]
- cell death (leakage of lactate dehydrogenase) [1]: cell death was higher
